In this test the test system is cholesterol biosynthesis. Description: Inhibition of cholesterol biosynthesis (method of J. Biol. Chem. 234, 2835 (1959)). It counts as biochemical. The conditions noted are these: method of Journal of Biological Chemistry, 234, 2835 (1959). The text has this:
The inhibitory activities of certain of the compounds of the invention, in terms of the concentration in μg/ml required to inhibit cholesterol biosynthesis by 50% [measured by the method described in the Journal of Biological Chemistry, 234, 2835 (1959)], are as follows: […]

As for `CC[C@H](C)C(=O)O[C@H]1CC=CC2=CC(OC)[C@H](C)[C@H](CC[C@@H]3C[C@@H](O)CC(=O)O3)[C@H]21` (stereo partly drawn) [6-methoxy-IsoML-236B lactone], the “concentration required to inhibit cholesterol biosynthesis by 50%” value amounted to 0.015 µg/mL. With `CC[C@H](C)C(=O)O[C@H]1CCC=C2C=C[C@H](C)[C@H](CC[C@@H]3C[C@@H](O)CC(=O)O3)[C@H]21` [ML-236B lactone, reference compound], the “concentration required to inhibit cholesterol biosynthesis by 50%” value amounted to 0.010 µg/mL. For the compound `CC[C@H](C)C(=O)O[C@H]1CC=CC2=CC(OC)[C@H](C)[C@H](CC[C@@H](O)C[C@@H](O)CC(=O)O)[C@H]21` (stereo partly drawn) [Sodium 6-methoxy-IsoML-236B carboxylate, sodium 6-methoxy-IsoML-236B carboxylate], the “concentration required to inhibit cholesterol biosynthesis by 50%” value worked out at 0.0044 µg/mL.

The values above are taken from patent US4447626A, “ML-236B Derivatives” (Sankyo Company Limited, priority 1981, dated 1984).
